Non-standard residues stand in square brackets, D forms with d. Residues, ends and D or L forms follow the SMILES beside them. *: point of attachment. Cbz = O=C(OCc1ccccc1)*; Dap = NC[C@H](N)C(=O)O
Experiments:
[1] = Half life.; type: ADME
[2] = target: Neutrophil elastase (Homo sapiens) (UniProt P08246); experiment: Inhibition of elastase.
[3] = system: Cricetinae gen. sp.; experiment: Inhibition against at the dose of 30 mg/kg after 30 minutes.; type: functional, Cricetulus griseus; conditions: 0.5 h
[4] = system: Cricetinae gen. sp.; experiment: Inhibition against at the dose of 30 mg/kg after 5 hr.; type: functional, Cricetulus griseus
[5] = system: Enterovirus; experiment: Inhibitory activity against the different replication of HRV serotypes and related piocornaviruses A21 and B3, enterovirus 70 and echo virus 11; type: functional, organism-based
[6] = target: Plasmepsin I (Plasmodium falciparum, UniProt P39898); experiment: Inhibitory concentration for Plasmodium falciparum plasmepsin-1.
[7] = target: Plasmepsin II (Plasmodium falciparum) (UniProt P46925); experiment: Inhibition of Plasmodium falciparum plasmepsin-2 at 10 uM
[8] = Inhibitory concentration against the live parasite in preventing hemoglobin degradation.; type: functional
[9] = Oral bioavailability in rats at the dose of 10 mg/kg po; type: ADME, organism-based; conditions: rat, in vivo, read-out: Bioavailabiility
[10] = Cmax value in the period of 0-24 hr after dosing.; type: ADME, organism-based; conditions: in vivo
[11] = Tmax value of the compound; type: ADME
[12] = Plasma half life at the dose of 5 mg/kg iv.; type: ADME, organism-based; set-up: dose 5 mg/kg
[13] = target: T1, Neprilysin (Rattus norvegicus, UniProt P07861); experiment: Inhibitory activity against neutral Endopeptidase
T1 sequence (P07861 whole entry): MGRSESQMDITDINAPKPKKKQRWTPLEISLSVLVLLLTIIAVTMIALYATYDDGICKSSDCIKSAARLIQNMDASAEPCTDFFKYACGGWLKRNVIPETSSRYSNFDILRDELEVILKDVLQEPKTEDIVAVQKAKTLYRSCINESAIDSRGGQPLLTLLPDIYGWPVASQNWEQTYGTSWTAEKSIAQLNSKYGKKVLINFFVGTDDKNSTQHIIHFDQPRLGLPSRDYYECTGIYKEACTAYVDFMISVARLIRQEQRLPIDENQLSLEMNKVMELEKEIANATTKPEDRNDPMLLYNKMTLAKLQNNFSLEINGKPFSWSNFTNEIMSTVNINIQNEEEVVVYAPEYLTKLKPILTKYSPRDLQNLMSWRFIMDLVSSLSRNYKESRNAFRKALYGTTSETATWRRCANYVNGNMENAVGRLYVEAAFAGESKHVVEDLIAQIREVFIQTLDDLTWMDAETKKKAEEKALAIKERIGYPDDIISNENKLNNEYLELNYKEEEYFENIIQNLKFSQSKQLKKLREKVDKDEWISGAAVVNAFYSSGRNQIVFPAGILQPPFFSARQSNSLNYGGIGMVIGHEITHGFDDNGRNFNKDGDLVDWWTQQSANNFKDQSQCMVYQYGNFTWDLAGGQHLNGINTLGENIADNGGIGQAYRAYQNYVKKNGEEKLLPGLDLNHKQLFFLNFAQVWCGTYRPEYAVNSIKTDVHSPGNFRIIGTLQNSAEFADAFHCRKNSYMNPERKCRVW

[14] = target: Papain (Carica papaya, UniProt P00784); experiment: The apparent binding affinity against Papain; conditions: read-out: Ki app
[15] = target: Cathepsin B (Homo sapiens, UniProt P07858)
[16] = target: Procathepsin L (Homo sapiens, UniProt P07711)
[17] = Oral bioavailability in dog; type: ADME, organism-based, Canis lupus familiaris; conditions: in vivo
[18] = Cmax value at the period of 800 mg po for every 8 hr.; type: ADME, organism-based; set-up: dose 800 mg, route oral; conditions: in vivo
[19] = Inhibitory concentration against several aspartic proteases of Candida albicans
[20] = target: T2, Cathepsin D (Homo sapiens, UniProt P07339); experiment: Inhibitory concentration against cathepsin D
[21] = target: T3, Renin (Homo sapiens, UniProt P00797); experiment: Inhibitory concentration against renin.
T3 sequence (P00797 whole entry): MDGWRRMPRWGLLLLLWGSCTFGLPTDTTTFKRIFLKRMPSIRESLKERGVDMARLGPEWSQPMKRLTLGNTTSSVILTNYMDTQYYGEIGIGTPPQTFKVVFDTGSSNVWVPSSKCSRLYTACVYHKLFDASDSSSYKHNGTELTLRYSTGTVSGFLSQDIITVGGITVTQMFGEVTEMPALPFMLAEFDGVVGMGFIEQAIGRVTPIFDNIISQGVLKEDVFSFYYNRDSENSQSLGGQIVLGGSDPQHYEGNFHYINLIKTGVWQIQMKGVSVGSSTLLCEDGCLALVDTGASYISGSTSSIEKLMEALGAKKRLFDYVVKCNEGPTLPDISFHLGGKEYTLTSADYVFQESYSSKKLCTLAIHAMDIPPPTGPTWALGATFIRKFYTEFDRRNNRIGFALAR

[22] = target: Collagenase 3 (Homo sapiens, UniProt P45452)
[23] = target: Matrix metalloproteinase-9 (Homo sapiens, UniProt P14780)
[24] = target: 72 kDa type IV collagenase (Homo sapiens, UniProt P08253)
[25] = target: T4, Interstitial collagenase (Homo sapiens, UniProt P03956)
T4 sequence (P03956 whole entry): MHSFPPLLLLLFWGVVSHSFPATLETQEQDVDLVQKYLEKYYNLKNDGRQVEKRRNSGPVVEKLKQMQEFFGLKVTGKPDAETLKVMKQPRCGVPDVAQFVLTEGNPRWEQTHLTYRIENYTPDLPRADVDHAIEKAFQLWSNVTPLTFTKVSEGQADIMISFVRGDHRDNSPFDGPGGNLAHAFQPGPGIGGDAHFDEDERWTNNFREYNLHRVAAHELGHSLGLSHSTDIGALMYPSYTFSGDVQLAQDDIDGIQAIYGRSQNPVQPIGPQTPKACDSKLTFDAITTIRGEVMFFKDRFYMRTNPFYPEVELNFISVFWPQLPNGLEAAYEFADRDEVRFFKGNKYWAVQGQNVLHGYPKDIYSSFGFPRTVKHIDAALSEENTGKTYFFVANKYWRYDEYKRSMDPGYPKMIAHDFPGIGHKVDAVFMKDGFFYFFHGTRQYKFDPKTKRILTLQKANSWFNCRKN

[26] = target: Neutrophil collagenase (Homo sapiens, UniProt P22894); experiment: Inhibition of matrix metalloprotease-8 (MMP-8).
[27] = Half life in dogs.; type: ADME, organism-based, Canis lupus familiaris; conditions: dog, in vivo
[28] = oral bioavailability in marmosets; type: ADME, organism-based; conditions: callithrix, in vivo, read-out: Bioavailabiility
[29] = target: T2, Cathepsin D; experiment: Inhibitory concentration against human cathepsin D.
[30] = target: T3, Renin
[31] = target: Pepsin A (Sus scrofa, UniProt P00791); experiment: Inhibitory concentration against porcine pepsin
[32] = oral bioavailability in cynomolgus monkeys; type: ADME, organism-based, Macaca fascicularis; conditions: cynomolgus monkey, in vivo, read-out: Bioavailabiility
[33] = system: Cricetinae gen. sp.; experiment: Inhibitory concentration against elastase; type: functional, Cricetulus griseus; conditions: read-out: ID50 (the source's name)
[34] = target: Caspase-3 (Homo sapiens, UniProt P42574); experiment: Inhibitory activity against caspase-3.
[35] = target: T5, Caspase-1 (Homo sapiens, UniProt P29466)
T5 sequence (P29466 whole entry): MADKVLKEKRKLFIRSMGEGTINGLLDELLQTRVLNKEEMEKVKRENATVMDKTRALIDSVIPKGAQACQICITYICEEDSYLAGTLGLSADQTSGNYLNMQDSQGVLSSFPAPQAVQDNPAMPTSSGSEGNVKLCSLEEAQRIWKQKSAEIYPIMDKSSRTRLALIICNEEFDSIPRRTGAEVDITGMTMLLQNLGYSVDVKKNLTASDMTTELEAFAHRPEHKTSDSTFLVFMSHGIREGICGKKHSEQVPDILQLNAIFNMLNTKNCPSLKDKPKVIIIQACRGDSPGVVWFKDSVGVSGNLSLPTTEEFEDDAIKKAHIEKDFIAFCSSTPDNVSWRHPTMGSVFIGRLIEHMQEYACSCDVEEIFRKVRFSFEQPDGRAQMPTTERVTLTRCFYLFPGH

[36] = target: T3, Renin; experiment: Inhibitory concentration against renin..
[37] = Inhibitory concentration against SAP
[38] = oral bioavailability in dogs and monkeys.; type: ADME, organism-based, Canis lupus familiaris; conditions: dog, in vivo, read-out: Bioavailabiility
[39] = Inhibitory concentration required to reduce hemorrhage by 50%at the dose of 15 n mol /animal,72 hr prior to elastase.; type: functional
[40] = The inhibition against liver metastases at 100 ug/mL.; type: ADME, tissue-based
[41] = Cmax value of the compound; type: ADME, organism-based; conditions: in vivo

T2 sequence (P07339 65-162 limits assumed): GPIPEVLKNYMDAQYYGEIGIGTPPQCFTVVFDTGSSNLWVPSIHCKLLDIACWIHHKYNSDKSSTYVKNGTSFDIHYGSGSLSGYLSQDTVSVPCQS
T2 sequence (P07339 169-412 limits assumed): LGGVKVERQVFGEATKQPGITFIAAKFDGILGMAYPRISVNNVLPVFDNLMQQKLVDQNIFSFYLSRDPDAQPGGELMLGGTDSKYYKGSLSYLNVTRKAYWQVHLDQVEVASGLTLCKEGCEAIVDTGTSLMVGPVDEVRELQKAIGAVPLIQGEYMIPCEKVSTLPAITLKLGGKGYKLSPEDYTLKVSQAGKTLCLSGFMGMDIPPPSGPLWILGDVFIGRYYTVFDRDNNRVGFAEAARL
72 kDa type IV collagenase, sequence (P08253 whole entry): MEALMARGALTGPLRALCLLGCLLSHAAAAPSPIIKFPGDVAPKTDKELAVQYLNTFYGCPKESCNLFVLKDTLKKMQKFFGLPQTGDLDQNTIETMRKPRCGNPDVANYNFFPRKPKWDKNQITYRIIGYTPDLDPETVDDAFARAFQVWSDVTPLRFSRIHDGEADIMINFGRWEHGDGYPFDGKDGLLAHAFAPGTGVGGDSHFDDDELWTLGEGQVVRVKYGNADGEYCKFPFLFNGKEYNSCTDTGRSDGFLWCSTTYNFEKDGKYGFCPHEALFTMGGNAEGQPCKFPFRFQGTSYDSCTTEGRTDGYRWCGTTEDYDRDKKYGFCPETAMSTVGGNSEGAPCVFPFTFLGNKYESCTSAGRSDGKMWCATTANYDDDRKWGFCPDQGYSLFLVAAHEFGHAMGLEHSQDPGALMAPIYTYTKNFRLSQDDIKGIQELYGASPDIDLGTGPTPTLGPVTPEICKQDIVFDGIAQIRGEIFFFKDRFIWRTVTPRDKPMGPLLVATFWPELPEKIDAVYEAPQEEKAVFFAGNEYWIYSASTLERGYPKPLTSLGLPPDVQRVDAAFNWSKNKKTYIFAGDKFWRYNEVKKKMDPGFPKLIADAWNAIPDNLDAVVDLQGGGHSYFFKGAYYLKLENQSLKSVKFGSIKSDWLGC
Matrix metalloproteinase-9, sequence (P14780 whole entry): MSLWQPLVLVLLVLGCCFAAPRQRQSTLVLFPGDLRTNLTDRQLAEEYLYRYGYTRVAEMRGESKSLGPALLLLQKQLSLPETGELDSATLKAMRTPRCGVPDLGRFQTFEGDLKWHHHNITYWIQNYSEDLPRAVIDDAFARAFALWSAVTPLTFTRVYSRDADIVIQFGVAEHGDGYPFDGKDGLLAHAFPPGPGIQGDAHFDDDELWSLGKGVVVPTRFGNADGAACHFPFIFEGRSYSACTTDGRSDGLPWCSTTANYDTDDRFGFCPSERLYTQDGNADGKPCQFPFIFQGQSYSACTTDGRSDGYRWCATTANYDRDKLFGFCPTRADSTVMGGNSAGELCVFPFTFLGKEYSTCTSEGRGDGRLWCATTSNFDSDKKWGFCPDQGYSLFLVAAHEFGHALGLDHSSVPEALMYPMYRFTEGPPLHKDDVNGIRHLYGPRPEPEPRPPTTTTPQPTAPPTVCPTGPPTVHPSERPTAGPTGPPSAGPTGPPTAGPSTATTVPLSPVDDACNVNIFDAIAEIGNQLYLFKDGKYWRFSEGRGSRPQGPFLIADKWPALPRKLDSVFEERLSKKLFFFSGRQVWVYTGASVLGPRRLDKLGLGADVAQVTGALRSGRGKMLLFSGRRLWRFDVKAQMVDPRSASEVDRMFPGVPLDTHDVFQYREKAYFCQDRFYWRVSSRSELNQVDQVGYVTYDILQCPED
Pepsin A, sequence (P00791 whole entry): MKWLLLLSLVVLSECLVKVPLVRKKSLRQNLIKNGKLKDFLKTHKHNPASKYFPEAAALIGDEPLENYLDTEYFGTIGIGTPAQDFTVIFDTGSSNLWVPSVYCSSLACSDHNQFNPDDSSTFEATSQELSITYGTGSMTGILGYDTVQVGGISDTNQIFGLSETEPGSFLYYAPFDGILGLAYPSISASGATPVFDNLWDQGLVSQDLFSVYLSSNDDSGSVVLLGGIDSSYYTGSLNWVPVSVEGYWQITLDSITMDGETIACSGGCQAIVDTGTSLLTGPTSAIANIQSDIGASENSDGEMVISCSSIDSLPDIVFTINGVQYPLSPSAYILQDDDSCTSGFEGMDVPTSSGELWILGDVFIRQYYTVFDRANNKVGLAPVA
Caspase-3, sequence (P42574 29-175 limits assumed): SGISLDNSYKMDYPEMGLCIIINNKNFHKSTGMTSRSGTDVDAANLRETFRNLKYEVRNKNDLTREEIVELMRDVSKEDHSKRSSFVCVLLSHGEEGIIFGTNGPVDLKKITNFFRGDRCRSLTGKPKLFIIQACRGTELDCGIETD
Caspase-3, sequence (P42574 176-277 limits assumed): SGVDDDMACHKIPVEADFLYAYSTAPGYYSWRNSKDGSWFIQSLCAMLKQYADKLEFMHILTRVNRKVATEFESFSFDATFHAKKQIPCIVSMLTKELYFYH
Procathepsin L, sequence (P07711 whole entry): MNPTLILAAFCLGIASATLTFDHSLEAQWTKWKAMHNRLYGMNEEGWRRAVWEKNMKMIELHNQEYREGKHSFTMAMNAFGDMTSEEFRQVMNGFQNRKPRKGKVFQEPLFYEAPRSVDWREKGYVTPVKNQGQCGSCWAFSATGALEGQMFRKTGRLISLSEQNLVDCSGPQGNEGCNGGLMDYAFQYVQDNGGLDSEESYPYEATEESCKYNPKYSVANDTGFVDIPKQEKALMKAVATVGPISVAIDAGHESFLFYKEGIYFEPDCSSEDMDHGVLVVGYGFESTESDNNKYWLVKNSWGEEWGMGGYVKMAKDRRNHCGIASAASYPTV
Plasmepsin I, sequence (P39898 whole entry): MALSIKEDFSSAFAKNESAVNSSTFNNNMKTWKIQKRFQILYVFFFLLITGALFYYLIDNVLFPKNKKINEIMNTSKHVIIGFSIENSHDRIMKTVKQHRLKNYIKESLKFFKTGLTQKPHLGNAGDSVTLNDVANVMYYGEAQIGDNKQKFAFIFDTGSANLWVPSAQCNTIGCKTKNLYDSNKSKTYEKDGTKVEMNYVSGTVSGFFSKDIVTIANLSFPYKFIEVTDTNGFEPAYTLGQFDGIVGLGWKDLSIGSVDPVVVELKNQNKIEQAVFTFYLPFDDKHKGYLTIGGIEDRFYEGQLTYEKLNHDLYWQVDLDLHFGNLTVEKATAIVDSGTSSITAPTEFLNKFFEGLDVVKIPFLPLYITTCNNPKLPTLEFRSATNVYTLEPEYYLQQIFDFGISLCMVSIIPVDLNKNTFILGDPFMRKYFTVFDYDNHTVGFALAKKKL
Papain, sequence (P00784 whole entry): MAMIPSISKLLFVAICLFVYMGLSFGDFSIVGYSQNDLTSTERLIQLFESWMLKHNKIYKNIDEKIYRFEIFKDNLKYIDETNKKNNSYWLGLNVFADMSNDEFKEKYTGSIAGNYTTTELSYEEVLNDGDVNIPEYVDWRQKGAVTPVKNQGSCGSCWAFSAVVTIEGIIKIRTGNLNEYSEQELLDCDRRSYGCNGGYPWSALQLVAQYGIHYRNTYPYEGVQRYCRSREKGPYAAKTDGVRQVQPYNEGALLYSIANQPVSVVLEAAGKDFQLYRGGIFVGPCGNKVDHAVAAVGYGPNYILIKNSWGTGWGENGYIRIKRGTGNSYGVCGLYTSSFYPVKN
Plasmepsin II (Plasmodium falciparum), sequence (P46925 125-453 limits assumed): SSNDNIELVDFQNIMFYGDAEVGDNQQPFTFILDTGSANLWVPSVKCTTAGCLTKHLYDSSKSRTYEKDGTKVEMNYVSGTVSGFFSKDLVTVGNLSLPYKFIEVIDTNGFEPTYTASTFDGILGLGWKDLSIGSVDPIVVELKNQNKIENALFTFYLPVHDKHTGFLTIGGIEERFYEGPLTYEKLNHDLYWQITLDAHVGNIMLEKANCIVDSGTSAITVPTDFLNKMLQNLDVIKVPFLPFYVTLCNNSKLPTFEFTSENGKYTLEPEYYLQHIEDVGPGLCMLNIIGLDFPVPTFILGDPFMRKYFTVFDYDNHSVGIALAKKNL
Neutrophil elastase (Homo sapiens), sequence (P08246 whole entry): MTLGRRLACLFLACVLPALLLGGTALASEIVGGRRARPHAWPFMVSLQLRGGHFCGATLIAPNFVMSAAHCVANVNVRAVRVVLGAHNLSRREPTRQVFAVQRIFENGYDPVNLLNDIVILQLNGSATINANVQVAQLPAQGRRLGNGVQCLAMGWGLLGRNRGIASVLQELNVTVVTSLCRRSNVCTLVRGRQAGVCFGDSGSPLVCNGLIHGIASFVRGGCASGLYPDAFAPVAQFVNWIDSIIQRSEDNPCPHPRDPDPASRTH
Neutrophil collagenase, sequence (P22894 whole entry): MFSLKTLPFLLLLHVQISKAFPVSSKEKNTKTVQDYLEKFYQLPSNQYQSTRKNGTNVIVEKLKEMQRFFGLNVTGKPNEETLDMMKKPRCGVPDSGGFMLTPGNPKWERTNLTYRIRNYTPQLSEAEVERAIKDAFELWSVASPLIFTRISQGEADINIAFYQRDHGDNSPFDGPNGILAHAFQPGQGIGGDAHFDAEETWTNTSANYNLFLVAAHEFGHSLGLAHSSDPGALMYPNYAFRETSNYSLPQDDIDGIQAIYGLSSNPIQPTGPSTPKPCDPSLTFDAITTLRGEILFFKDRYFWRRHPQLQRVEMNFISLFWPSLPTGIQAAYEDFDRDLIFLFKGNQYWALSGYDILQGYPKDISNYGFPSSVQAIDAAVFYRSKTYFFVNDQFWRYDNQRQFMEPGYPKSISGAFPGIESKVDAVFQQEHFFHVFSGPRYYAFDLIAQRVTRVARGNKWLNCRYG

## CC[C@@H](NC(=O)N1C(=O)[C@](C)(CC)[C@@H]1Oc1ccc(CC(=O)O)cc1)c1ccccc1
[1]
  half-life: 5 h
[2]
  K obs / 1: 91000 M⁻¹ s⁻¹
[3]
  inhibition in vivo at 30 mg/kg: 98%
[4]
  inhibition in vivo at 30 mg/kg: 51%

## CC(=O)NC[C@@H](C=O)NC(=O)[C@H](Cc1ccccc1)NC(=O)[C@H](CC(C)C)NC(=O)OCc1ccccc1 (Cbz-Leu-Phe-[Dap](Ac)-aldehyde)
[5]
  Ki: 6 nM

## CCCCC(O)[C@H](C)C[C@H](O)[C@H](CC1CCCCC1)NC(=O)[C@H](CC(C)C)NC(=O)[C@H](Cc1ccccc1)NC(=O)OC(C)(C)C (stereo partly specified)
[6]
  IC50: 500 nM
[7]
  inhibition: 22%
[8]
  IC50: 5000 nM

## CC(C)c1nc(CN(C)C(=O)N[C@H](C(=O)N[C@@H](Cc2ccccc2)C[C@H](O)[C@H](Cc2ccccc2)NC(=O)OCc2cncs2)C(C)C)cs1 [RITONAVIR]
[9]
  bioavailability: 78%
[10]
  Cmax: 2.6 µM
[11]
  Tmax: 2 h
[12]
  half-life: 1.2 h

## C[C@H](NC(=O)[C@@H](CS)Cc1ccc2c(c1)OCO2)C(=O)O
[13]
  Ki: 5.6 nM

## CC(C)C[C@H](NC(=O)OCc1ccccc1)C(=O)NCC(=O)CNC(=O)[C@H](CC(C)C)NC(=O)OCc1ccccc1
[14]
  Ki: > 10000 nM
[15]
  Ki: 1300 nM
[16]
  Ki: 340 nM

## CC(C)(C)NC(=O)[C@@H]1CN(Cc2cccnc2)CCN1C[C@@H](O)C[C@@H](Cc1ccccc1)C(=O)N[C@H]1c2ccccc2C[C@H]1O.O
[17]; read-out: Bioavailabiility
  bioavailability: 90%
[18]
  Cmax: 12 µM
[11]
  Tmax: 1 h

## CCCC[C@@H](C(=O)N[C@@H](CC1CCCCC1)[C@@H](O)C[C@H](C(=O)NCCC)C(C)C)N1CCN(C(=O)N2CCN(C)CC2)[C@H](Cc2ccccc2)C1=O
[19]
  IC50: 1.4 nM
[20]
  IC50: 770 nM
[21]
  IC50: 7.1 nM

## O=C(C[C@H](CSc1ccccc1)C(=O)O)c1ccc(-c2ccc(Cl)cc2)cc1 [TANOMASTAT]
[22]
  Ki: 1470 nM
[23]
  Ki: 301 nM
[24]
  Ki: 11 nM
[25]
  Ki: 5000 nM

## CN1C(=O)N(C[C@H](C(=O)NO)[C@@H](CC2CCCC2)C(=O)N2CCCCC2)C(=O)C1(C)C
[26]
  Ki: 4 nM
[23]
  Ki: 59 nM
[24]
  Ki: 154 nM

## CNC1CCN(C(=O)C[C@@H](Cc2ccccc2)C(=O)N[C@@H](CSC)C(=O)N[C@@H](CC2CCCCC2)[C@@H](O)C(=O)OC(C)C)CC1
[17]
  bioavailability: 60%
[27]
  half-life: 2.4 h
[28]
  bioavailability: 59%
[29]
  IC50: 550 nM
[30]
  IC50: 4 nM
[31]
  IC50: 2100 nM
[32]
  bioavailability: > 27%

## CC(C)(C)C(=O)Oc1ccc(S(=O)(=O)Nc2ccccc2C(=O)NCC(=O)O)cc1
[33]
  ED50: 0.082 mg/kg

## O=C1C[C@H](NC(=O)[C@@H]2CCC[C@@H]3CCC[C@H](NC(=O)OCc4ccccc4)C(=O)N32)C(O)O1 (stereo partly specified)
[34]
  IC50: > 10000 nM
[35]
  IC50: 36 nM

## CCCC[C@@H](C(=O)N[C@@H](CC1CCCCC1)[C@@H](O)C[C@H](C(=O)NCCN(C)C)C(C)C)N1CCN(C(=O)N2CCN(C)CC2)[C@H](Cc2ccccc2)C1=O
[20]
  IC50: 58000 nM
[36]
  IC50: > 100 nM
[37]
  IC50: 6.2 nM

## CN1CCN=C1c1cccc(Oc2nc(Oc3cc(C(=N)N)ccc3O)c(F)c(N(C)CC(=O)O)c2F)c1 [FIDEXABAN]
[38]
  bioavailability: 20%

## CC(C)C(NC(=O)c1ccc(S(=O)(=O)NC(=O)c2ccc(Cl)c(S(=O)(=O)NC(=O)CSc3cc(C(C)(C)C)c(O)c(C(C)(C)C)c3)c2)cc1)C(=O)N1Cc2ccccc2C1C(=O)NC(C(=O)C(F)(F)F)C(C)C (stereo unspecified)
[39]
  IC50: 26 nM

## CC(C)C[C@H](NC(=O)[C@H]1O[C@@H]1C(=O)O)C(=O)NCCCCN=C(N)N [E-64]
[40]
  Inhibition: 90%

## COc1cc(C(C)C)c2c(c1)S(=O)(=O)N(COC(=O)c1c(Cl)ccc(OCCN3CCOCC3)c1Cl)C2=O
[41]
  Cmax: 470 ng/mL
